This note sets out measurements from patent US20130034509A1, “COSMETIC TREATMENT METHOD INVOLVING A COMPOUND CAPABLE OF CONDENSING IN SITU” (L'OREAL, priority 2009, published 2013).

For data set [1] the following is noted: dispersion contacted on a film of APTES.
Data set [2] in a line: Insolubility of the deposit in water in the Petri dish (Example 3). The following applies: general statement in the description.

Take Zinc Pyrithione: the “flocculation of the dispersion” value in data set [1] is listed as “almost immediate flocculation”.

As to `CCO[Si](CCCN)(OCC)OCC` [APTES, γ-aminopropyl triethoxysilane], the “water solubility of the material resulting from condensation” value in data set [2] is reported as “high water solubility”.
